Values quoted from earlier work, collected in patent US8197795B2, “Method for monitoring early treatment response” (Receptomon, LLC, priority 2004, dated 2012).

Key:
solid, malignant tumors = conditions: patients with solid, Ranson et al. 2002
[1] = test system: xenograft models, including colon cancer, non-small cell lung cancer (NSCLC), and prostate cancer; conditions: Ranson et al.
NSCLC = NSCLC patients treated with gefitinib; Lynch et al. 2004

COc1cc2ncnc(Nc3ccc(F)c(Cl)c3)c2cc1OCCCN1CCOCC1 [gefitinib]
activity in patients (solid, malignant tumors): active | activity in xenograft models [1]: active | patients with a rapid and often dramatic clinical response (NSCLC): about 10%
